The source of these data is US8642801B2 (BHI Limited Partnership, priority 2003, dated 2014).

For this experiment, the target named is T1, Aβ40 and Aβ42 peptides in plasma and brain of TgCRND8 mice (Homo sapiens, UniProt P05067).
T1 construct: ELISA using Human Aβ40 and Aβ42 Fluorometric ELISA kits from Biosource; from tissue; host or cells: plasma and brain homogenate of TgCRND8 transgenic mice (hAPP transgene)
Kind of experiment: Short term treatment in adult transgenic CRND8 mice overexpressing βAPP: Aβ levels in plasma and brain by ELISA. In kind it is in vivo, Mouse. As to conditions: TgCRND8 mice; for Brain homogenate Aβ40 Change Insoluble / Brain homogenate Aβ42 Change Insoluble / Brain homogenate Aβ42 Change Soluble / Brain homogenate Aβ40 Change Soluble: Brain Homogenate Vehicle Group, 250 mg/kg daily. An excerpt:
Transgenic mice, […]8, expressing the human amyloid precursor protein (hAPP) develop a pathology resembling Alzheimer's disease. In particular, high levels of Aβ40 and Aβ 42 have been documented in the plasma and the brain of these animals at 8-9 weeks of age, followed by early accumulation of amyloid plaques similar to the senile plaques observed in AD patients. These animals also display progressive cognitive deficits that parallel the appearance of degenerative changes. See, […], et al., J. Biol. Chem. 276, 21562-70 (2001). The short term therapeutic effect of 19 compounds of the invention was studied. […] The following abbreviations are used to designate these animals from the 3rd and 4th generation backcross in the present protocol: TgCRND8-2.B6C3F1(N3); TgCRND8-2.B6C3F1(N4). Baseline animals (Group 1) consisted of naive TgCRND8-2. B6C3F1(N3) at 11±1 weeks of age. These mice were used to determine the Aβ levels in the plasma and brain of naive transgenic animals at the initiation of treatment. […] At the end of the treatment periods, plasma and perfused brains were collected for quantification of Aβ levels. […] Plasma samples were immediately frozen and stored at -80° C. pending analysis. The brains were removed, frozen, and stored at -80° C. awaiting analysis. […] Samples were spun at 15000 g for 20 minutes and the supernatants were transferred to fresh tubes. […] The tubes were vortexed for 30 seconds and frozen at -80° C. […] Samples were thawed at room temperature, sonicated at 80° C. for 15 minutes and frozen again. This cycle was repeated 3 times to ensure homogeneity and samples were returned to -80° C. pending analysis. Aβ levels were evaluated in plasma and brain samples by ELISA using Human Aβ40 and Aβ42 Fluorometric ELISA kits from Biosource (Cat. […] In short, samples were thawed at room temperature, sonicated for 5 minutes at 80° C. (sonication for brain homogenates; no sonication for plasma samples) and kept on ice. Aβ peptides were captured using 100 μl of the diluted samples to the plate and incubated without shaking at 4° C. overnight. The samples were aspirated and the wells were rinsed 4 times with wash buffer obtained from the Biosource ELISA kit. The anti-Aβ40 or anti-Aβ42 rabbit polyclonal antiserum (specific for the Aβ40 or Aβ42 peptide) was added (100 μl) and the plate was incubated at room temperature for 2 hours with shaking. The wells were aspirated and washed 4 times before adding 100 μl of the alkaline phosphatase labeled anti-rabbit antibody and incubating at room temperature for 2 hours with shaking. The plates were then rinsed 5 times and the fluorescent substrate (100 μl) was added to the plate. The plate was incubated for 35 minutes at room temperature and the plate was read using a titer plate reader at an excitation wavelength of 460 nm and emission at 560 nm Compounds were scored based on their ability to modulate levels of Aβ peptides in the plasma and the cerebral soluble/insoluble levels in the brain. Levels of Aβ observed in the plasma and brain of treated animals were normalized using values from vehicle-treated (water) or methylcellulose-treated control groups and ranked according to the strength of the pharmacological effect. Increases in the levels of Aβ peptides are indicated using “+” symbols, while decreases in the levels of Aβ peptides are indicated using “-” symbols. The strongest effects are recorded as “+++” or “- - -” while the weakest are shown as “+” or “-”.
(In general: An ELISA detects its analyte on a solid surface through an enzyme-linked reagent.)

The mark [1] stands for this setting: Plasma Vehicle Group, Day 14, 250 mg/kg daily subcutaneous, normalized to water vehicle control.

As to `O=S(=O)(O)CC(O)CNC1CCCCC1` (stereo not shown) [DC], for the setting “Day 14”, the “Brain homogenate Aβ40 Change Insoluble” value is “−− (decreases of 20 to 38% are scored as “− −”)”, the “Brain homogenate Aβ42 Change Insoluble” value is listed as “−− (decreases of 20 to 38% are scored as “− −”)” and the “Brain homogenate Aβ42 Change Soluble” value is “+ (increases in the levels of Aβ (relative to untreated control) of 20 to 39% are scored as “+”)”. For the setting “Day 28”, the “Brain homogenate Aβ40 Change Insoluble” value is on record as “+ (increases in the levels of Aβ (relative to untreated control) of 20 to 39% are scored as “+”)”, the “Brain homogenate Aβ40 Change Soluble” value is “− (Decreases in the levels of Aβ of 5 to 19% are scored as “−”)”, the “Brain homogenate Aβ42 Change Insoluble” value is given as “+++ (increases of 70% or higher are scored as “+ + +”)” and the “Brain homogenate Aβ42 Change Soluble” value is recorded as “++ (increases of 40 to 69% are scored as “++”)”. Under setting [1], the “Plasma Aβ40 Change” value was “++ (increases of 40 to 69% are scored as “++”)” and the “Plasma Aβ42 Change” value is on record as “++ (increases of 40 to 69% are scored as “++”)”. The “Plasma Aβ40 Change” value (Plasma Vehicle Group, Day 28, 250 mg/kg daily subcutaneous, normalized to water vehicle control) is reported as “++ (increases of 40 to 69% are scored as “++”)”.
Consider `C#CC1(NCCCS(=O)(=O)O)CCCCC1` [DX, 3-(1-ethynylcyclohexyl)amino-1-propanesulfonic acid], for which, for the setting “Day 14”, the “Brain homogenate Aβ40 Change Insoluble” value is “−− (decreases of 20 to 38% are scored as “− −”)” and the “Brain homogenate Aβ42 Change Insoluble” value is given as “− (Decreases in the levels of Aβ of 5 to 19% are scored as “−”)”. In addition, where the note is “Day 28”, the “Brain homogenate Aβ40 Change Insoluble” value is given as “−− (decreases of 20 to 38% are scored as “− −”)”, the “Brain homogenate Aβ42 Change Insoluble” value is listed as “−− (decreases of 20 to 38% are scored as “− −”)” and the “Brain homogenate Aβ42 Change Soluble” value was “− (Decreases in the levels of Aβ of 5 to 19% are scored as “−”)”.
For `COc1ccc([C@H](C)NCCCS(=O)(=O)O)cc1` [DZ, 3-[(S)-1-(4-methoxyphenyl)ethyl]amino-1-propanesulfonic acid], the “Brain homogenate Aβ42 Change Insoluble” value (Day 14) is given as “−− (decreases of 20 to 38% are scored as “− −”)”. Further, for the setting “Day 28”, the “Brain homogenate Aβ40 Change Insoluble” value is listed as “−− (decreases of 20 to 38% are scored as “− −”)”, the “Brain homogenate Aβ40 Change Soluble” value is “− (Decreases in the levels of Aβ of 5 to 19% are scored as “−”)”, the “Brain homogenate Aβ42 Change Insoluble” value was “−− (decreases of 20 to 38% are scored as “− −”)” and the “Brain homogenate Aβ42 Change Soluble” value was “−− (decreases of 20 to 38% are scored as “− −”)”.
On to `CCC(CC)NCCCS(=O)(=O)O` [DD, 3-(3-pentyl)amino-1-propanesulfonic acid], for which the “Brain homogenate Aβ40 Change Insoluble” value reads like this: (Day 14) “− (Decreases in the levels of Aβ of 5 to 19% are scored as “−”)”; (Day 28) “− (Decreases in the levels of Aβ of 5 to 19% are scored as “−”)”.
In the case of `COCC(NCCCS(=O)(=O)O)[C@@H](O)c1ccccc1` (stereo in doubt) [EG, 3-[(1R,2S)-2-hydroxy-1-(methoxymethyl)-2-phenylethyl]amino-1-propanesulfonic acid], where the note is “Day 14”, the “Brain homogenate Aβ40 Change Insoluble” value is “−− (decreases of 20 to 38% are scored as “− −”)”, the “Brain homogenate Aβ40 Change Soluble” value is given as “− (Decreases in the levels of Aβ of 5 to 19% are scored as “−”)”, the “Brain homogenate Aβ42 Change Insoluble” value was “−− (decreases of 20 to 38% are scored as “− −”)” and the “Brain homogenate Aβ42 Change Soluble” value is “−− (decreases of 20 to 38% are scored as “− −”)”. For the same compound, where the note is “Day 28”, the “Brain homogenate Aβ40 Change Insoluble” value is “−− (decreases of 20 to 38% are scored as “− −”)” and the “Brain homogenate Aβ42 Change Insoluble” value is “−− (decreases of 20 to 38% are scored as “− −”)”.
